For 4 compounds, carcinogen call results are on record in PubChem BioAssay AID1259411 (Chemical Carcinogenesis Research Information System (CCRIS), 2018).

Active and inactive are the calls of the source. How the calls were made is not given here.

In this data set the test system is rodent carcinogenicity bioassays, tumor incidence. The data set is described as follows: CCRIS carcinogenicity studies. Conditions: Dose: 0. Summed up: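 NCI-built, expert-reviewed records of carcinogenicity and related test outcomes (mutagenicity, tumor promotion/inhibition) compiled from published and report sources, historical span 1985-2011, not updated.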

Regarding `O=S(=O)(O)c1ccc(N=Nc2c(O)ccc3ccccc23)cc1`, the carcinogen call runs as follows: (Species: MOUSE, Strain/Sex: SWISS-WEBSTER/FEMALE, Route: DERMAL, 1% IN 0.1 ML DISTILLED WATER 1/WK FOR 18 MO (STUDY DURATION: 18 MO)) “inactive; negative”; (Species: MOUSE, Strain/Sex: SWISS-WEBSTER/MALE, Route: DERMAL, 1% IN 0.1 ML DISTILLED WATER 1/WK FOR 18 MO (STUDY DURATION: 18 MO)) “inactive; negative”.
In the case of `CC(C)c1ccccc1`, the carcinogen call was “active; positive. authors describe as clear evidence of carcinogenicity based on increas” (Species: Mouse, Strain/Sex: B5C3F1/ Female (50/Group), Route: Inhalation, 125, 250, 500 ppm for 6 hr plus 12 min per d, 5 d/wk, 105 wk (Study duration: 105 wk), 125, 250, 500 ppm for 6 hr plus 12 min per d, 5 d/wk, 105 wk (Study duration: 105 wk), Tumor Site: Type of Lesion: Lung: Alveolar/bronchiolar adenoma (1/50; 26/50; 36/50; 38/50), Alveolar/bronchiolar carcinoma (3/50, 16/50, 20/50, 34/, Tumor Site: Type of Lesion: Lung: Alveolar/bronchiolar adenoma (1/50; 26/50; 36/50; 38/50), Alveolar/bronchiolar carcinoma (3/50, 16/50, 20/50, 34/); “active; positive. authors describe as clear evidence of carcinogenicity based on increas” (Species: Mouse, Strain/Sex: B5C3F1/ Male (50/Group), Route: Inhalation, 250, 500, 1,000 ppm for 6 hr plus 12 min per d, 5 d/wk, 105 wk (Study duration: 105 wk), 250, 500, 1,000 ppm for 6 hr plus 12 min per d, 5 d/wk, 105 wk (Study duration: 105 wk), Tumor Site: Type of Lesion: Lung: Alveolar/bronchiolar adenoma (13/50; 31/50; 29/50), Alveolar/bronchiolar carcinoma (9/50, 19/50, 32/50, 33/, Tumor Site: Type of Lesion: Lung: Alveolar/bronchiolar adenoma (13/50; 31/50; 29/50), Alveolar/bronchiolar carcinoma (9/50, 19/50, 32/50, 33/); “inactive; negative. authors describe as some evidence of carcinogenicity” (Species: Rat, Strain/Sex: F344/N / Female (50/Group), Route: Inhalation, 250, 500, 1,000 ppm for 6 hr plus 12 min per d, 5 d/wk, 105 wk (Study duration: 105 wk), 250, 500, 1,000 ppm for 6 hr plus 12 min per d, 5 d/wk, 105 wk (Study duration: 105 wk), Tumor Site: Type of Lesion: Nose (respiratory epithelium): Adenoma (0/50; 5/48; 4/50; 3/50)); “active; positive. authors describe as clear evidence of carcinogenicity except that test” (Species: Rat, Strain/Sex: F344/N / Male (50/Group), Route: Inhalation, 250, 500, 1,000 ppm for 6 hr plus 12 min per d, 5 d/wk, 105 wk (Study duration: 105 wk), 250, 500, 1,000 ppm for 6 hr plus 12 min per d, 5 d/wk, 105 wk (Study duration: 105 wk), Tumor Site: Type of Lesion: Nose (respiratory epithelium): Adenoma (0/50, 7/50, 18/49, 10/50, Renal tubule: Adenoma (1/50; 4/50; 5/50; 4/50), Renal, Tumor Site: Type of Lesion: Nose (respiratory epithelium): Adenoma (0/50, 7/50, 18/49, 10/50, Renal tubule: Adenoma (1/50; 4/50; 5/50; 4/50), Renal).
Consider `NCC1(CC(=O)O)CCCCC1`, for which the carcinogen call runs as follows: (Species: RAT, Strain/Sex: WISTAR/FEMALE, Route: ORAL, 250, 1000, 2000 MG/KG IN DIET FOR 104 WK (STUDY DURATION: 104 WK), 250, 1000, 2000 MG/KG IN DIET FOR 104 WK (STUDY DURATION: 104 WK)) “inactive; negative”; (Species: RAT, Strain/Sex: WISTAR/MALE, Route: ORAL, 250, 1000, 2000 MG/KG IN DIET FOR 104 WK (STUDY DURATION: 104 WK), 250, 1000, 2000 MG/KG IN DIET FOR 104 WK (STUDY DURATION: 104 WK), Tumor Site: Type of Lesion: PANCREAS: ACINAR CELL ADENOMA, ACINAR CELL CARCINOMA) “active; positive”.
For the compound `CN(CC(O)CO)N=O` (centres undefined), the carcinogen call (Species: HAMSTER, Strain/Sex: SYRIAN/FEMALE, Route: GAVAGE, 2.4 MG IN 0.2 ML OF WATER 1/WK FOR 41 WK FOR A TOTAL DOSE OF 98 MG (STUDY DURATION: 45 WK), Tumor Site: Type of Lesion: NASAL MUCOSA: CARCINOMA, ADENOMA) was “active; positive”.
